“And” between values parts separate entries of the source, which are not always exact repeats. Equal entries are not always repeated.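 Dose response: 5 concentrations. Exposure: 48 h. Format: 96-well plates. Endpoint: linear interpolation; highest concentration if not reached. The concentration for 50% growth inhibition is given as GI50. TGI is the concentration that stops growth completely.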
Tests used:
Test in all cases: NCI-60 cell line screen, 48 h
[1] = tested on: MDA-MB-435
[2] = tested on: SK-MEL-28 melanoma
[3] = tested on: A549 NSCLC
[4] = tested on: UACC-62 melanoma
[5] = tested on: OVCAR-4 ovarian
[6] = tested on: HCT-116 colon
[7] = tested on: HOP-62 NSCLC
[8] = tested on: UACC-257 melanoma
[9] = tested on: K-562 leukemia
[10] = tested on: M14 melanoma
[11] = tested on: HT29 colon
[12] = tested on: SNB-19 CNS
[13] = tested on: EKVX NSCLC
[14] = tested on: 786-0 renal
[15] = tested on: PC-3 prostate
[16] = tested on: MOLT-4 leukemia
[17] = tested on: NCI-H226 lung
[18] = tested on: IGROV1 ovarian
[19] = tested on: HOP-92 NSCLC
[20] = tested on: NCI-H23 lung
[21] = tested on: ACHN renal
[22] = tested on: LOX IMVI melanoma
[23] = tested on: DU-145 prostate
[24] = tested on: SK-OV-3 ovarian
[25] = tested on: SK-MEL-5 melanoma
[26] = tested on: RPMI-8226 leukemia
[27] = tested on: OVCAR-3 ovarian
[28] = tested on: RXF 393 renal
[29] = tested on: SK-MEL-2 melanoma
[30] = tested on: OVCAR-5 ovarian
[31] = tested on: SW-620 colon
[32] = tested on: T-47D breast
[33] = tested on: CCRF-CEM leukemia
[34] = tested on: SNB-75 CNS
[35] = tested on: SN12C renal
[36] = tested on: OVCAR-8 ovarian
[37] = tested on: HS 578T breast
[38] = tested on: TK-10 renal
[39] = tested on: HCC-2998 colon
[40] = tested on: MCF7 breast
[41] = tested on: HCT-15 colon
[42] = tested on: SF-268 CNS
[43] = tested on: UO-31 renal
[44] = tested on: SF-539 CNS
[45] = tested on: HL-60(TB) leukemia
[46] = tested on: A498 renal
[47] = tested on: SF-295 CNS
[48] = tested on: U251 CNS
[49] = tested on: MDA-MB-231 breast
[50] = tested on: KM12 colon
[51] = tested on: NCI-H522 lung
[52] = tested on: NCI-H460 lung
[53] = tested on: MALME-3M melanoma
[54] = tested on: COLO 205 colon
[55] = tested on: CAKI-1 renal
[56] = tested on: NCI/ADR-RES ovarian
[57] = tested on: BT-549 breast

SMILES: CCOC(=O)CCCn1c(SC)nc2cc(-c3ccco3)[nH]c2c1=O
- GI50 [1]: > 100 µM
- TGI [1]: > 100 µM
- GI50 [2]: > 100 µM
- TGI [2]: > 100 µM
- GI50 [3]: > 100 µM
- TGI [3]: > 100 µM
- GI50 [4]: 22.5 µM
- TGI [4]: 68.3 µM
- GI50 [5]: > 100 µM
- TGI [5]: > 100 µM
- GI50 [6]: 49.8 µM
- TGI [6]: > 100 µM
- GI50 [7]: 37 µM
- TGI [7]: > 100 µM
- GI50 [8]: > 100 µM
- TGI [8]: > 100 µM
- GI50 [9]: > 100 µM
- TGI [9]: > 100 µM
- GI50 [10]: > 100 µM
- TGI [10]: > 100 µM
- GI50 [11]: > 100 µM
- TGI [11]: > 100 µM
- GI50 [12]: 19.8 µM
- TGI [12]: 65.6 µM
- GI50 [13]: 65.9 µM
- TGI [13]: > 100 µM
- GI50 [14]: 34.2 µM
- TGI [14]: > 100 µM
- GI50 [15]: > 100 µM
- TGI [15]: > 100 µM
- GI50 [16]: > 100 µM
- TGI [16]: > 100 µM
- GI50 [17]: > 100 µM
- TGI [17]: > 100 µM
- GI50 [18]: 19.6 µM
- TGI [18]: 76.6 µM
- GI50 [19]: 25.6 µM
- TGI [19]: 65.7 µM
- GI50 [20]: 90.5 µM
- TGI [20]: > 100 µM
- GI50 [21]: 31.7 µM
- TGI [21]: > 100 µM
- GI50 [22]: 57.8 µM
- TGI [22]: > 100 µM
- GI50 [23]: > 100 µM
- TGI [23]: > 100 µM
- GI50 [24]: 5.74 µM
- TGI [24]: 32.5 µM
- GI50 [25]: > 100 µM
- TGI [25]: > 100 µM
- GI50 [26]: > 100 µM
- TGI [26]: > 100 µM
- GI50 [27]: 48.2 µM
- TGI [27]: > 100 µM
- GI50 [28]: 12 µM
- TGI [28]: 30.6 µM
- GI50 [29]: 36.4 µM
- TGI [29]: > 100 µM
- GI50 [30]: > 100 µM
- TGI [30]: > 100 µM
- GI50 [31]: > 100 µM
- TGI [31]: > 100 µM
- GI50 [32]: 39.6 µM
- TGI [32]: > 100 µM
- GI50 [33]: > 100 µM
- TGI [33]: > 100 µM
- GI50 [34]: 4.55 µM
- TGI [34]: 17.7 µM
- GI50 [35]: 81.8 µM
- TGI [35]: > 100 µM
- GI50 [36]: 31.1 µM
- TGI [36]: > 100 µM
- GI50 [37]: 25.6 µM
- TGI [37]: > 100 µM
- GI50 [38]: 35.1 µM
- TGI [38]: > 100 µM
- GI50 [39]: > 100 µM
- TGI [39]: > 100 µM
- GI50 [40]: > 100 µM
- TGI [40]: > 100 µM
- GI50 [41]: > 100 µM
- TGI [41]: > 100 µM
- GI50 [42]: 52.7 µM
- TGI [42]: > 100 µM
- GI50 [43]: 72.6 µM
- TGI [43]: > 100 µM
- GI50 [44]: 20.4 µM
- TGI [44]: 53.2 µM
- GI50 [45]: > 100 µM
- TGI [45]: > 100 µM
- GI50 [46]: 27.4 µM
- TGI [46]: 76 µM
- GI50 [47]: 16.7 µM
- TGI [47]: 54.8 µM
- GI50 [48]: 17.1 µM
- TGI [48]: 56 µM
- GI50 [49]: 28 µM
- TGI [49]: 81.2 µM
- GI50 [50]: > 100 µM
- TGI [50]: > 100 µM
- GI50 [51]: 35.1 µM
- TGI [51]: > 100 µM
- GI50 [52]: > 100 µM
- TGI [52]: > 100 µM
- GI50 [53]: > 100 µM
- TGI [53]: > 100 µM
- GI50 [54]: > 100 µM
- TGI [54]: > 100 µM
- GI50 [55]: 25.8 µM
- TGI [55]: 90.4 µM
- GI50 [56]: 72.9 µM
- TGI [56]: > 100 µM

SMILES: CCCCCCCCCCC(C[N+](C)(C)C/C=C/c1ccccc1)C(O)c1ccccc1 (configuration not stated)
- GI50 [18]: 0.999 µM
- TGI [18]: 2.54 µM
- GI50 [19]: 0.435 µM
- TGI [19]: 2.08 µM
- GI50 [23]: 1.76 µM
- TGI [23]: 3.37 µM
- GI50 [29]: 1.75 µM
- TGI [29]: 3.24 µM
- GI50 [41]: 2.29 µM
- TGI [41]: 6.31 µM
- GI50 [42]: 1.47 µM
- TGI [42]: 3.2 µM
- GI50 [43]: 2.09 µM
- TGI [43]: 4.51 µM
- GI50 [45]: 1.1 µM
- TGI [45]: 2.63 µM
- GI50 [55]: 12.2 µM
- TGI [55]: 34.1 µM
- GI50 [56]: 7.5 µM
- TGI [56]: 34.6 µM

SMILES: c1ccc2c(c1)[nH]c1c2nc2sccn21
- GI50 [34]: 20.6 µM and 44.8 µM
- TGI [34]: > 100 µM

SMILES: COc1ccc2nc(-c3ccccc3)cc(Nc3ccc(C(C)=O)cc3)c2c1
- GI50 [2]: 29.5 µM
- TGI [2]: > 100 µM
- GI50 [57]: 15.3 µM
- TGI [57]: 37.5 µM
- GI50 [3]: 11.9 µM
- TGI [3]: 60.3 µM
- GI50 [4]: 2.31 µM
- TGI [4]: 5.13 µM
- GI50 [5]: 12.1 µM
- TGI [5]: > 100 µM
- GI50 [6]: 1.54 µM
- TGI [6]: 4.62 µM
- GI50 [8]: 12 µM
- TGI [8]: 32.6 µM
- GI50 [9]: 1.14 µM
- TGI [9]: 11.7 µM
- GI50 [10]: 2.61 µM
- TGI [10]: 7.25 µM
- GI50 [11]: 9.89 µM
- TGI [11]: > 100 µM
- GI50 [12]: 5.74 µM
- TGI [12]: 26.6 µM
- GI50 [13]: 5.98 µM
- TGI [13]: 20.5 µM
- GI50 [14]: 1.31 µM
- TGI [14]: 3.54 µM
- GI50 [15]: 1.16 µM
- TGI [15]: 4.63 µM
- GI50 [16]: 1.98 µM
- TGI [16]: 4.93 µM
- GI50 [17]: 0.94 µM
- TGI [17]: 3.46 µM
- GI50 [18]: 15.8 µM
- TGI [18]: > 100 µM
- GI50 [20]: 3.51 µM
- TGI [20]: 11.9 µM
- GI50 [21]: 2.54 µM
- TGI [21]: 9.79 µM
- GI50 [23]: 14.1 µM
- TGI [23]: 27.1 µM
- GI50 [24]: 16.1 µM
- TGI [24]: 36.9 µM
- GI50 [25]: 1.6 µM
- TGI [25]: 3.86 µM
- GI50 [26]: 1.72 µM
- TGI [26]: 4.31 µM
- GI50 [29]: 38.7 µM
- TGI [29]: > 100 µM
- GI50 [30]: 6.3 µM
- TGI [30]: 19.1 µM
- GI50 [31]: 5.08 µM
- TGI [31]: 18.5 µM
- GI50 [32]: 15.7 µM
- TGI [32]: > 100 µM
- GI50 [34]: 17.9 µM
- TGI [34]: 42.5 µM
- GI50 [35]: 1.87 µM
- TGI [35]: 4.66 µM
- GI50 [36]: 4.17 µM
- TGI [36]: 35.8 µM
- GI50 [37]: 8.2 µM
- TGI [37]: 27.1 µM
- GI50 [38]: 5.24 µM
- TGI [38]: 17.2 µM
- GI50 [39]: 2.45 µM
- TGI [39]: 5.27 µM
- GI50 [40]: 2.47 µM
- TGI [40]: 13.9 µM
- GI50 [41]: 2.25 µM
- TGI [41]: 6.11 µM
- GI50 [42]: 7.51 µM
- TGI [42]: 31 µM
- GI50 [43]: 6.2 µM
- TGI [43]: > 100 µM
- GI50 [44]: 2.37 µM
- TGI [44]: 4.21 µM
- TGI [47]: 1.57 µM
- GI50 [48]: 2.46 µM
- TGI [48]: 10.8 µM
- GI50 [49]: 0.0369 µM
- TGI [49]: 2.13 µM
- GI50 [50]: 1.88 µM
- TGI [50]: 5.2 µM
- GI50 [51]: 17.7 µM
- TGI [51]: > 100 µM
- GI50 [52]: 5.73 µM
- TGI [52]: 19.3 µM
- GI50 [53]: 5.28 µM
- TGI [53]: 18.7 µM
- GI50 [54]: 16.4 µM
- TGI [54]: > 100 µM
- GI50 [56]: 2.78 µM
- TGI [56]: 7.29 µM

Reference: PubChem BioAssay (NCI)
